Reference: publication PMC4131466, “Antidepressant Fluoxetine Modulates the In Vitro Inhibitory Activity of Buffalo Brain Cystatin: A Thermodynamic Study Using UV and Fluorescence Techniques” (Biotechnology Research International, 2014)

Target: T1, buffalo brain cystatin (BC)
T1 construct: gene CST3
Assay: intrinsic fluorescence quenching, log-log plot
Type: binding, Bubalus bubalis
Conditions: 1 μM BC, 50 mM sodium phosphate pH 7.5, 298 K, 30 min incubation, excitation 280 nm; n = 0.79
Excerpt: intrinsic fluorescence quenching, log-log plot on buffalo brain cystatin (BC)

Compound: CNCCC(Oc1ccc(C(F)(F)F)cc1)c1ccccc1 (stereo not shown) [Fluoxetine]
- K (binding constant) mol^-1: 5.0317e+06 mol⁻¹
